Results reported in patent US20060069132A1, “Azolecarboxamide herbicides” (priority 2004, published 2006).

Key:
barnyardgrass [1] = assay: Test B pre-/postemergence herbicide test; type: in vivo, Echinochloa crus-galli; details: for Barnyardgrass plant response rating (0 to 100 scale) / Plant response rating, Barnyardgrass: 0 = no effect, 100 = complete control, preemergence; for Plant response rating, Barnyardgrass / Barnyardgrass plant response rating: visual rating; for Barnyardgrass plant response rating: postemergence, scale 0 (no effect) to 100 (complete control)
Method in brief: (§1)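 Species tested were Echinochloa crus-galli, Ipomoea coccinea, Xanthium strumarium and Oryza sativa, treated both before emergence and at the 1- to 4-leaf stage; rice and barnyardgrass were also tested under flooding at 2 leaves. Greenhouse incubation lasted 13–15 days before visual 0–100 scoring.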

Surinam grass = assay: Test B pre-/postemergence herbicide test; type: in vivo, Urochloa decumbens; details: for Surinam Grass plant response rating (0 to 100 scale) / Plant response rating, Surinam Grass: 0 = no effect, 100 = complete control, preemergence; for Surinam Grass plant response rating: postemergence
Method in brief: (§2)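 Plants compared with untreated controls 13–15 days post-treatment and given a visual 0–100 injury score. Applications: preemergence to seeds; postemergence at 1- to 4-leaf (2–18 cm); paddy species flooded, 2-leaf stage. Vehicle non-phytotoxic, surfactant included.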

cocklebur = assay: Test B pre-/postemergence herbicide test; type: in vivo, Xanthium strumarium; details: for Cocklebur plant response rating (0 to 100 scale) / Plant response rating, Cocklebur: 0 = no effect, 100 = complete control, preemergence; for Plant response rating, Cocklebur / Cocklebur plant response rating: visual rating; for Cocklebur plant response rating: postemergence, scale 0 (no effect) to 100 (complete control)
Method in brief: as §1

corn = assay: Test B pre-/postemergence herbicide test; type: in vivo, Zea mays; details: for Corn plant response rating (0 to 100 scale) / Plant response rating, Corn: 0 = no effect, 100 = complete control, preemergence; for Corn plant response rating: postemergence
Method in brief: as §2

large crabgrass = assay: Test B pre-/postemergence herbicide test; type: in vivo, Digitaria sanguinalis; details: for Crabgrass, Large plant response rating: postemergence
Method in brief: as §2

giant foxtail = assay: Test B pre-/postemergence herbicide test; type: in vivo, Setaria faberi; details: for Foxtail, Giant plant response rating (0 to 100 scale) / Plant response rating, Foxtail, Giant: 0 = no effect, 100 = complete control, preemergence; for Foxtail, Giant plant response rating: postemergence
Method in brief: as §2

lambsquarters = assay: Test B pre-/postemergence herbicide test; type: in vivo, Chenopodium album; details: for Lambsquarters plant response rating: postemergence
Method in brief: as §2

morningglory = assay: Test B pre-/postemergence herbicide test; type: in vivo, Ipomoea coccinea; details: for Morningglory plant response rating (0 to 100 scale) / Plant response rating, Morningglory: 0 = no effect, 100 = complete control, preemergence; for Morningglory plant response rating: postemergence
Method in brief: as §1

pigweed = assay: Test B pre-/postemergence herbicide test; type: in vivo, Amaranthus retroflexus; details: for Pigweed plant response rating: postemergence
Method in brief: as §2

rice [2] = assay: Test B pre-/postemergence herbicide test; type: in vivo, Oryza sativa; details: 0 = no effect, 100 = complete control, preemergence; for Rice plant response rating (0 to 100 scale): 125 g ai/ha; for Plant response rating, Rice: 500 g ai/ha, visual rating
Method in brief: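 Greenhouse pot assay with simultaneous preemergence (treated seed) and postemergence (2–18 cm seedlings) applications of surfactant-containing, non-phytotoxic solvent formulations. Response scored visually 13–15 days later on a 0–100 scale, 100 meaning complete control.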

velvetleaf = assay: Test B pre-/postemergence herbicide test; type: in vivo, Abutilon theophrasti; details: for Velvetleaf plant response rating (0 to 100 scale) / Plant response rating, Velvetleaf: 0 = no effect, 100 = complete control, preemergence; for Velvetleaf plant response rating: postemergence
Method in brief: as §2

blackgrass = assay: Test B postemergence herbicide test; type: in vivo, Alopecurus myosuroides; details: postemergence, visual rating, scale 0 (no effect) to 100 (complete control)
Method in brief: (§3)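 Plants grow to 1- to 4-leaf stage (2–18 cm) for postemergence spraying, or to 2-leaf stage for the paddy test. Formulated compound is applied. Greenhouse holding lasts 13–15 days. Response is scored visually relative to controls, 0 no effect to 100 complete control; a dash means no result.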

wheat = assay: Test B postemergence herbicide test; type: in vivo, Triticum aestivum; parameters: key to Wheat plant response rating: 0 = no effect, 100 = complete control; details: postemergence
Method in brief: (§4)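 Visual ratings, 0 (no effect) to 100 (complete control), made versus controls after 13–15 d greenhouse. Paddy plants treated at 2-leaf stage; postemergence plants at 1- to 4-leaf stage, 2–18 cm tall.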

wild oat = assay: Test B postemergence herbicide test; type: in vivo, Avena fatua; details: postemergence
Method in brief: as §4

rice [3] = assay: Test B flooded paddy test; type: in vivo, Oryza sativa; details: 1000 g ai/ha, scale 0 to 100 (0 no effect, 100 complete control)
Method in brief: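 Formulated test chemicals went onto postemergence plants measuring 2 to 18 cm, at one to four leaves. For the paddy assay, species had reached two leaves. Scoring took place 13–15 days later by eye, relative to untreated plants, using 0 for no effect up to 100 for full control.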

[4] = test system: small flower umbrella sedge; assay: Test B flooded paddy test; type: in vivo, Cyperus difformis; details: 1000 g ai/ha, scale 0 to 100 (0 no effect, 100 complete control)
Method in brief: as §3

ducksalad = assay: Test B flooded paddy test; type: in vivo, Heteranthera limosa; details: 1000 g ai/ha, scale 0 to 100 (0 no effect, 100 complete control)
Method in brief: as §3

barnyardgrass [5] = assay: Test B flooded paddy test; type: in vivo, Echinochloa crus-galli; details: 1000 g ai/ha, scale 0 to 100 (0 no effect, 100 complete control)
Method in brief: as §3

[6] = 125 g ai/ha, visual rating, scale 0 (no effect) to 100 (complete control)
[7] = 500 g ai/ha, visual rating, scale 0 (no effect) to 100 (complete control)
[8] = 125 g ai/ha, 0 = no effect, 100 = complete control, preemergence
[9] = 500 g ai/ha, visual rating, 0 = no effect, 100 = complete control, preemergence
[10] = 500 g ai/ha, scale 0 to 100, 0 is no effect, 100 is complete control

CCNC(=O)c1ccnc(NC(=O)c2nn(C(C)(C)C)cc2CC)c1 [Compound 233]
Barnyardgrass plant response rating (0 to 100 scale) (barnyardgrass [1]; 125 g ai/ha): 10 | Plant response rating, Barnyardgrass (barnyardgrass [1]; 500 g ai/ha): 10 | Surinam Grass plant response rating (0 to 100 scale) (Surinam grass; 125 g ai/ha): 0 | Plant response rating, Surinam Grass (Surinam grass; 500 g ai/ha, visual rating): 20 | Surinam Grass plant response rating (Surinam grass; [6]): 10 | Surinam Grass plant response rating (Surinam grass; [7]): 20 | Cocklebur plant response rating (0 to 100 scale) (cocklebur; 125 g ai/ha): 0 | Plant response rating, Cocklebur (cocklebur; 500 g ai/ha): 0 | Cocklebur plant response rating (cocklebur; 125 g ai/ha): 20 | Cocklebur plant response rating (cocklebur; 500 g ai/ha): 20 | Corn plant response rating (0 to 100 scale) (corn; 125 g ai/ha): 0 | Plant response rating, Corn (corn; 500 g ai/ha, visual rating): 0 | Corn plant response rating (corn; [6]): 10 | Corn plant response rating (corn; [7]): 30 | Crabgrass, Large plant response rating (0 to 100 scale) (large crabgrass; [8]): 20 | Plant response rating, Crabgrass, Large (large crabgrass; [9]): 90 | Crabgrass, Large plant response rating (large crabgrass; [6]): 10 | Crabgrass, Large plant response rating (large crabgrass; [7]): 10 | Foxtail, Giant plant response rating (0 to 100 scale) (giant foxtail; 125 g ai/ha): 0 | Plant response rating, Foxtail, Giant (giant foxtail; 500 g ai/ha, visual rating): 0 | Foxtail, Giant plant response rating (giant foxtail; [6]): 0 | Foxtail, Giant plant response rating (giant foxtail; [7]): 30 | Lambsquarters plant response rating (0 to 100 scale) (lambsquarters; [8]): 0 | Plant response rating, Lambsquarters (lambsquarters; [9]): 30 | Lambsquarters plant response rating (lambsquarters; [6]): 50 | Lambsquarters plant response rating (lambsquarters; [7]): 70 | Morningglory plant response rating (0 to 100 scale) (morningglory; 125 g ai/ha): 0 | Plant response rating, Morningglory (morningglory; 500 g ai/ha, visual rating): 0 | Morningglory plant response rating (morningglory; [6]): 50 | Morningglory plant response rating (morningglory; [7]): 80 | Pigweed plant response rating (0 to 100 scale) (pigweed; [8]): 0 | Plant response rating, Pigweed (pigweed; [9]): 60 | Pigweed plant response rating (pigweed; [6]): 60 | Pigweed plant response rating (pigweed; [7]): 70 | Rice plant response rating (0 to 100 scale) (rice [2]): 0 | Plant response rating, Rice (rice [2]): 0 | Velvetleaf plant response rating (0 to 100 scale) (velvetleaf; 125 g ai/ha): 10 | Plant response rating, Velvetleaf (velvetleaf; 500 g ai/ha, visual rating): 10 | Velvetleaf plant response rating (velvetleaf; [6]): 30 | Velvetleaf plant response rating (velvetleaf; [7]): 50 | Blackgrass plant response rating (blackgrass; 125 g ai/ha): 0 | Blackgrass plant response rating (blackgrass; 500 g ai/ha): 10 | Wheat plant response rating (wheat; [6]): 0 | Wheat plant response rating (wheat; [7]): 10 | Oat, Wild plant response rating (wild oat; [6]): 0 | Oat, Wild plant response rating (wild oat; [7]): 20 | Rice plant response rating (rice [3]): 30 | Sedge, Umbrella plant response rating [4]: 80 | Ducksalad plant response rating (ducksalad): 50 | Barnyardgrass plant response rating (barnyardgrass [5]): 0

CCNC(=O)c1cc(NC(=O)c2cc(C(C)(C)C)nn2CC)ccn1 [Compound 257]
Barnyardgrass plant response rating (0 to 100 scale) (barnyardgrass [1]; 125 g ai/ha): 0 | Plant response rating, Barnyardgrass (barnyardgrass [1]; 500 g ai/ha): 20 | Barnyardgrass plant response rating (barnyardgrass [1]; 125 g ai/ha): 0 | Barnyardgrass plant response rating (barnyardgrass [1]; 500 g ai/ha): 0 | Surinam Grass plant response rating (0 to 100 scale) (Surinam grass; 125 g ai/ha): 0 | Plant response rating, Surinam Grass (Surinam grass; 500 g ai/ha, visual rating): 0 | Surinam Grass plant response rating (Surinam grass; [6]): 0 | Surinam Grass plant response rating (Surinam grass; [10]): 20 | Cocklebur plant response rating (0 to 100 scale) (cocklebur; 125 g ai/ha): 0 | Plant response rating, Cocklebur (cocklebur; 500 g ai/ha): 0 | Cocklebur plant response rating (cocklebur; 125 g ai/ha): 0 | Cocklebur plant response rating (cocklebur; 500 g ai/ha): 70 | Corn plant response rating (0 to 100 scale) (corn; 125 g ai/ha): 0 | Plant response rating, Corn (corn; 500 g ai/ha, visual rating): 0 | Corn plant response rating (corn; [6]): 0 | Corn plant response rating (corn; [10]): 0 | Crabgrass, Large plant response rating (0 to 100 scale) (large crabgrass; [8]): 0 | Crabgrass, Large plant response rating (large crabgrass; [6]): 0 | Crabgrass, Large plant response rating (large crabgrass; [10]): 10 | Foxtail, Giant plant response rating (0 to 100 scale) (giant foxtail; 125 g ai/ha): 0 | Plant response rating, Foxtail, Giant (giant foxtail; 500 g ai/ha, visual rating): 50 | Foxtail, Giant plant response rating (giant foxtail; [6]): 0 | Foxtail, Giant plant response rating (giant foxtail; [10]): 0 | Lambsquarters plant response rating (0 to 100 scale) (lambsquarters; [8]): 0 | Lambsquarters plant response rating (lambsquarters; [6]): 20 | Lambsquarters plant response rating (lambsquarters; [10]): 50 | Morningglory plant response rating (0 to 100 scale) (morningglory; 125 g ai/ha): 0 | Plant response rating, Morningglory (morningglory; 500 g ai/ha, visual rating): 0 | Morningglory plant response rating (morningglory; [6]): 0 | Morningglory plant response rating (morningglory; [10]): 0 | Pigweed plant response rating (0 to 100 scale) (pigweed; [8]): 0 | Pigweed plant response rating (pigweed; [6]): 60 | Pigweed plant response rating (pigweed; [10]): 80 | Rice plant response rating (0 to 100 scale) (rice [2]): 0 | Plant response rating, Rice (rice [2]): 0 | Velvetleaf plant response rating (0 to 100 scale) (velvetleaf; 125 g ai/ha): 0 | Plant response rating, Velvetleaf (velvetleaf; 500 g ai/ha, visual rating): 0 | Velvetleaf plant response rating (velvetleaf; [6]): 0 | Velvetleaf plant response rating (velvetleaf; [10]): 10 | Blackgrass plant response rating (blackgrass; 125 g ai/ha): 0 | Blackgrass plant response rating (blackgrass; 500 g ai/ha): 10 | Wheat plant response rating (wheat; [6]): 0 | Wheat plant response rating (wheat; [10]): 20 | Oat, Wild plant response rating (wild oat; [6]): 10 | Oat, Wild plant response rating (wild oat; [10]): 30 | Rice plant response rating (rice [3]): 30 | Sedge, Umbrella plant response rating [4]: 0 | Ducksalad plant response rating (ducksalad): 50 | Barnyardgrass plant response rating (barnyardgrass [5]): 0
